Reference: patent US11401271B2, “Fused heterocyclic compound, pyrazole-ring-containing fused heterocyclic compound, agricultural composition containing thereof, and method of using the composition” (SOUTH CHINA AGRICULTURAL UNIVERSITY, priority 2017, dated 2022)
Where two headings read alike, the source gives them in different places.

Columns and labels:
Format in all cases: in vivo
[1] = system: Plutella xylostella; assay: whole plant or invertebrate; conditions: Plutella xylostella, read-out: Plutella xylostella Mortality (%) 500 ppm
Outline: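 Leaf immersion feeding test: 2nd-instar larvae (about 35 per vessel, 3 replicates) kept at 28° C. on 1.0 cm cabbage discs soaked 5 s in a 500 ppm solution with 0.05% Tween-80. Mortality after 24 h of exposure, calculated relative to live larvae in the Tween-80 control.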

[2] = system: Spodoptera exigua; assay: whole plant or invertebrate; conditions: Spodoptera exigua, 24 h, read-out: Spodoptera exigua Mortality (%) 500 ppm
Outline: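 Leaf immersion feeding: second-instar larvae (about 35 per vessel, triplicate) kept at 28° C on discs treated with 500 ppm test solution in 0.05% Tween-80. Mortality at 24 h, calculated relative to surviving larvae in the solvent control.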

[3] = system: Aphis craccivora; assay: whole plant or invertebrate; conditions: Aphis craccivora, 24 h, read-out: Aphis craccivora Mortality (%) 500 ppm
Outline: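 Mortality scored 24 h after treatment as the reduction in live aphids versus a 0.05% Tween-80 control; three replicates, 23° C. Treatment was a 5 s immersion of wingless adults on bean sprouts in 500 ppm test solution containing 0.05% Tween-80, followed by air-drying.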

[4] = system: Solenopsis invicta; assay: whole plant or invertebrate; conditions: Solenopsis invicta, water test tube poison-feeding
Outline: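 Mortality (%) of Solenopsis invicta, computed against live counts in control tubes, was recorded 24 h and 72 h after treatment at 25 °C. Compound was offered by oral feeding in test tubes at 100 ppm, diluted from a 10 g/L DMSO stock into water with 5% honey and 0.05% Tween-80.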

[5] = system: Bombyx mori L.; assay: Toxicity test on 2nd-instar larvae of Bombyx mori L., leaf immersion feeding method; conditions: 1000 ppm, 24 hours
Protocol: (1) Toxicity Test on 2nd-Instar Larvae of Bombyx mori L.
Bombyx mori L. is an important economic insect sensitive to pesticides in an agricultural ecosystem, and is also one of the non-target organisms of environmental ecology listed in pesticide registration of China. The 2nd-instar larvae of Bombyx mori L. were used as test objects and tested by using a leaf immersion feeding method.
Operation process: Samples were weighed accurately, and respectively added with 200 μL of dimethyl sulfoxide to prepare 10 g/L mother liquor which was diluted into a concentration of 1000 ppm with an aqueous solution containing 0.05% of Tween-80 during the test. Young cotyledons of mulberries were collected, washed and air-dried, immersed in a liquid medicine, taken out after 5 seconds, naturally air-dryed, and then transferred into a clean vessel. About 35 2nd -instar larvae of Bombyx mori L. were put into the vessel and fed at a constant temperature of 25° C. Each concentration was repeated 3 times, and an aqueous solution containing 0.05% of Tween-80 was used as a control group. After being treated for 24 hours, a number of dead Bombyx mori L. was counted, and a mortality (%) was calculated according to a formula that mortality (%)=(number of live larvae in the control group −number of treated live larvae)/number of live larvae in the control group * 100%.

[6] = system: Apis cernan; assay: Toxicity test on adult worker bees of Apis cernan, small beaker method; conditions: 500 ppm, 48 hours
Protocol: (2) Toxicity Test on Adult Worker Bees of Apis cernan.
Adult worker bees of Apis cernan having the same size were selected for test. The worker bees were collected from beekeeping boxes in the daystart of the test day and tested by using a small beaker method.
Operation process: A small amount of absorbent cotton was put into a 5 mL small beaker, 5 mL of a test liquid medicine (a concentration of 500 ppm) was dropped into the absorbent cotton, and stirred gently to make the absorbent cotton completely wet but not leached obviously, then the small beaker was put into a 500 mL large beaker, then 15 worker bees were put into the large beaker, and finally the large beaker was sealed with gauze. After treatment, the large beaker was placed in a dark room of an artificial climate box. After taking the medicine for 48 hours, a number of live and dead worker bees were investigated.

[7] = 24 h, read-out: Solenopsis invicta Mortality (%) 100 ppm 24 h, 100 ppm, 24 h
[8] = 72 h, read-out: Solenopsis invicta Mortality (%) 100 ppm 72 h, 100 ppm, 72 h

SMILES	mortality at 500 ppm [1] [%]	mortality at 500 ppm [2] [%]	mortality at 500 ppm [3] [%]	mortality at 100 ppm [4, 7] [%]	mortality at 100 ppm [4, 8] [%]	Toxicity determination Bombyx mori L. Mortality (%) [5] [%]	Toxicity determination Apis cernan Mortality (%) [6] [%]
Cc1cc(-c2c(C#N)nn3c2NC(C(O)CO)c2cc(C(F)(F)F)cc(Cl)c2-3)c(C)o1 (centres unmarked) [Compound C52]	90	91	100	22	90	10	7
COC(=O)C1(CC#N)Nc2c([S+]([O-])C(F)(F)F)c(C#N)nn2-c2c(Cl)cc(C(F)(F)F)cc21 (centres unmarked) [Compound C31]	100	100	100	34	100	3	8
CC(=O)N1c2c(Br)c(C#N)nn2-c2ccccc2C1(C)C [Compound A4]	86	100	100	20	87	10	8
CSc1nn2c(c1S(=O)(=O)c1ccccc1)NC(C)(C)c1nc(F)ncc1-2 [Compound A45]	100	100	100	24	100	10	11
CC1(C)Nc2c(N)c(C#N)nn2-c2ccccc21 [Compound A15]	100	100	100	24	100	8	5
CCOC(=O)c1c(SC)nn2c1NC(F)(C(F)(F)F)c1ccccc1-2 (centres unmarked) [Compound A27]	100	100	100	30	100	10	15
N#Cc1nn2c(c1[S+]([O-])C(F)(F)F)NC(C(O)CO)c1cc(C(F)(F)F)cc(Cl)c1-2 (centres unmarked) [Compound C51]	87	85	79	19	86	9	5
CNC(=O)C1(CC#N)Nc2c([S+](C)[O-])c(C(C)=O)nn2-c2c(Cl)cc(C(F)(F)F)cc21 (centres unmarked) [Compound C45]	93	97	86	25	71	6	3
COc1ccc(-c2cn3c(c2C#N)NC(C#N)(C#N)c2ccc([N+](=O)[O-])cc2-3)cc1 [Compound B1, 2-(4-methoxybenzene)-8-nitropyrrole[1,2-α]quinazoline-3,5,5(4H)-tricyano]	100	100	100	20	100	0	0
C=CC1(CCl)Nc2c(-c3cc(C)oc3C)c(C#N)nn2-c2c(Cl)cc(C(F)(F)F)cc21 (centres unmarked) [Compound C10]	100	85	100	27	100	10	9
C=CC1(CCl)Nc2cc(C#N)nn2-c2c(Cl)cc(C(F)(F)F)cc21 (stereo not drawn) [Compound C1, 9-chloro-7-trifluoromethylphenyl-5-chloromethyl-5-vinyl-4,5-dihydropyrrole[1,5-α]quinazoline-2-cyano]	89	100	100	20	100	7	7
C=CC1(C(F)(F)F)Nc2c([S+]([O-])C(F)(F)F)c(C#N)nn2-c2c(Cl)cc(C(F)(F)F)cc21 (centres unmarked) [Compound C15]	89	100	100	29	90	8	7
N#Cc1nn2c(c1[S+]([O-])C(F)(F)F)NC(CC(=O)O)(C(=O)O)c1cc(C(F)(F)F)cc(Cl)c1-2 (centres unmarked) [Compound C36]	90	90	100	10	90	2	3
N#Cc1cn2c(c1C#N)NC(C#N)(C#N)c1ccc([N+](=O)[O-])cc1-2 [Compound B6]	90	100	100	44	100	4	5
CC[S+]([O-])c1c(C#N)nn2c1NC(CO)(CC#N)c1cc(C(F)(F)F)cc(Cl)c1-2 (centres unmarked) [Compound C25]	92	97	86	25	71	3	0
N#Cc1cnn2c1NC(N)(CN)c1ccc(Cl)cc1-2 (centres unmarked) [Compound A23]	100	100	100	34	100	0	5
N#Cc1cn2c(c1C#N)NC(C#N)(C#N)c1ccc(N)cc1-2 [Compound B7]	100	100	100	38	100	6	6
CCc1nn2c(c1-c1cc(C)sc1C)NC(/C=C\C(=O)OC)(/C=C/C(=O)OC)c1cc(C(F)(F)F)cc(Cl)c1-2 (centres unmarked) [Compound C64]	92	97	100	17	90	7	9
O=[N+]([O-])c1cc2n(n1)-c1cnccc1C(F)(CC(F)(F)F)N2 (centres unmarked) [Compound A43]	100	100	100	20	100	3	8
C=CC(=O)Nc1ccc2c(c1)-n1cc(C#N)c(C#N)c1NC2(C#N)C#N [Compound B8]	100	100	100	45	100	5	4
